Data as given in ChEMBL document CHEMBL5512666, “Selenization of Small Molecule Drugs: A New Player on the Board” (J Med Chem, 2024).

What was measured:
LNCaP = assay: Cytotoxicity against human LNCaP cells incubated for 48 hrs; assay type: functional, cell-based
[1] = Cytotoxicity against MEF cells assessed as reduction in cell viability incubated for 48 hrs by MTT assay; assay type: toxicity, cell-based; conditions: mouse
PANC-1 = assay: Cytotoxicity against human PANC-1 cells assessed as reduction in cell viability incubated for 48 hrs by MTT assay; assay type: functional, cell-based; conditions: PANC-1, 48 h
MIA PaCa-2 = assay: Cytotoxicity against human MIA PaCa-2 cells assessed as reduction in cell viability incubated for 48 hrs by MTT assay; assay type: functional, cell-based; conditions: MIA PaCa-2, 48 h
DU-145 = assay: Cytotoxicity against human DU-145 cells incubated for 48 hrs; assay type: functional, cell-based; conditions: DU-145, 48 h
PC-3 = assay: Cytotoxicity against human PC-3 cells incubated for 48 hrs; assay type: functional, cell-based; conditions: PC-3, 48 h
BXPC-3 = assay: Cytotoxicity against human BXPC-3 cells assessed as reduction in cell viability incubated for 48 hrs by MTT assay; assay type: functional, cell-based; conditions: BXPC-3, 48 h

CC(=O)Oc1ccccc1C(=O)/N=C1\[Se]CCN1C(=O)c1ccccc1OC(C)=O
IC50 (LNCaP): 2.34 µM | IC50 at 48 h [1]: > 50 µM | IC50 (PANC-1): 0.74 µM | IC50 (MIA PaCa-2): 3.03 µM | IC50 (DU-145): 0.52 µM | IC50 (PC-3): 1.7 µM | IC50 (BXPC-3): 2.09 µM
